Legend:
Histamine H4 receptor [1] = target: T1, Histamine H4 receptor (Homo sapiens, UniProt Q9H3N8); experiment: Cell based cAMP Assays (pA2); conditions: read-out: pA2 (converted)
Histamine H4 receptor [2] = target: T1, Histamine H4 receptor; experiment: Binding assay

T1 sequence (Q9H3N8 whole entry): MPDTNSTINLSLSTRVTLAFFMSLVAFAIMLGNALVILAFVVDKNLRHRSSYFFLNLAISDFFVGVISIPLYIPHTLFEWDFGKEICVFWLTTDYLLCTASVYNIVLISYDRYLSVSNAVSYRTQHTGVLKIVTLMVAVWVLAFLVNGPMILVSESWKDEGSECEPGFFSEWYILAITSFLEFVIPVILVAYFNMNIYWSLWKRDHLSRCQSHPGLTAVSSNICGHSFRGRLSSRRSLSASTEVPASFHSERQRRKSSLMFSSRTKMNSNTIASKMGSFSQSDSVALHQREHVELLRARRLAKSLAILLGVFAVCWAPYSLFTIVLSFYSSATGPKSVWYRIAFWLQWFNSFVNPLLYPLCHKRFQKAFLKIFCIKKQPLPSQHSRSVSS

CN[C@@H]1CCN(c2cc(C(F)(F)F)nc(N)n2)C1
Kb (Histamine H4 receptor [1]): > 100 µM (not active) | Ki (Histamine H4 receptor [2]): > 10 µM (not active)

Reference: ChEMBL document CHEMBL5058644, “Data for DCP probe JNJ-39758979” (2022)
